# Laboratory results reported in PubChem BioAssay (NCI).
#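 Protocol summary: plate cells (96-well), add compound at 5 concentrations, incubate 48 h, interpolate endpoints linearly. TGI: total growth inhibition.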
# Tests used:
# Experiment in all cases: NCI anticancer screen, dose series, 48 h
# [1] = tested on: IGROV1 ovarian
# [2] = tested on: NCI-H23 lung
# [3] = tested on: 786-0 renal
# [4] = tested on: K-562 leukemia
# [5] = tested on: OVCAR-8 ovarian
# [6] = tested on: HL-60(TB) leukemia
# [7] = tested on: M14 melanoma
# [8] = tested on: RPMI-8226 leukemia
# [9] = tested on: SK-MEL-2 melanoma
# [10] = tested on: NCI-H460 lung
# [11] = tested on: OVCAR-4 ovarian
# [12] = tested on: OVCAR-5 ovarian
# [13] = tested on: LOX IMVI melanoma
# [14] = tested on: SW-620 colon
# [15] = tested on: UO-31 renal
# [16] = tested on: CCRF-CEM leukemia
# [17] = tested on: COLO 205 colon
# [18] = tested on: DU-145 prostate
# [19] = tested on: HCC-2998 colon
# [20] = tested on: U251 CNS
# [21] = tested on: SK-MEL-28 melanoma
# [22] = tested on: HT29 colon
# [23] = tested on: CAKI-1 renal
# [24] = tested on: MCF7 breast
# [25] = tested on: HCT-15 colon
# [26] = tested on: BT-549 breast
# [27] = tested on: MDA-MB-435
# [28] = tested on: UACC-62 melanoma
# [29] = tested on: A498 renal
# [30] = tested on: SR leukemia
# [31] = tested on: A549 NSCLC
# [32] = tested on: MDA-N
# [33] = tested on: UACC-257 melanoma
# [34] = tested on: KM12 colon
# [35] = tested on: NCI/ADR-RES ovarian
# [36] = tested on: SK-MEL-5 melanoma
# [37] = tested on: ACHN renal
# [38] = tested on: NCI-H522 lung
# [39] = tested on: HOP-62 NSCLC
# [40] = tested on: MALME-3M melanoma
# [41] = tested on: SNB-19 CNS
# [42] = tested on: SF-539 CNS
# [43] = tested on: SK-OV-3 ovarian
# [44] = tested on: HCT-116 colon
# [45] = tested on: PC-3 prostate
# [46] = tested on: EKVX NSCLC
# [47] = tested on: SF-268 CNS
# [48] = tested on: SF-295 CNS
# [49] = tested on: MOLT-4 leukemia
# [50] = tested on: OVCAR-3 ovarian
# [51] = tested on: T-47D breast
# [52] = tested on: HOP-92 NSCLC
# [53] = tested on: SN12C renal
# [54] = tested on: SNB-75 CNS
# [55] = tested on: NCI-H226 lung
smiles,measurement,setting,value
CCCCCCc1cc2cc(C(=O)Nc3ccc(F)cc3)c(=N)oc2cc1O,TGI,[1],4.47 µM
same,TGI,[2],4.6 µM
same,TGI,[3],77.6 µM
same,TGI,[4],12.3 µM
same,TGI,[5],3.75 µM
same,TGI,[6],4.62 µM
same,TGI,[7],13.2 µM
same,TGI,[8],4.96 µM
same,TGI,[9],9.98 µM
same,TGI,[10],> 100 µM
same,TGI,[11],23.2 µM
same,TGI,[12],> 100 µM
same,TGI,[13],4.93 µM
same,TGI,[14],> 100 µM
same,TGI,[15],18.4 µM
same,TGI,[16],3.8 µM
same,TGI,[17],> 100 µM
same,TGI,[18],6.78 µM
same,TGI,[19],> 100 µM
same,TGI,[20],8.64 µM
same,TGI,[21],43.5 µM
same,TGI,[22],> 100 µM
same,TGI,[23],13.6 µM
same,TGI,[24],33.7 µM
same,TGI,[25],7.62 µM
same,TGI,[26],7.32 µM
same,TGI,[27],10.1 µM
same,TGI,[28],8.7 µM
same,TGI,[29],> 100 µM
same,TGI,[30],8.23 µM
same,TGI,[31],14.9 µM
same,TGI,[32],28.1 µM
same,TGI,[33],29.2 µM
same,TGI,[34],10.1 µM
same,TGI,[35],8.94 µM
same,TGI,[36],3.28 µM
same,TGI,[37],> 100 µM
same,TGI,[38],6.13 µM
same,TGI,[39],12.2 µM
same,TGI,[40],> 100 µM
same,TGI,[41],25.3 µM
same,TGI,[42],4.82 µM
same,TGI,[43],8.09 µM
same,TGI,[44],11.1 µM
same,TGI,[45],13.5 µM
same,TGI,[46],21.2 µM
same,TGI,[47],5.61 µM
same,TGI,[48],> 100 µM
same,TGI,[49],5.59 µM
same,TGI,[50],> 100 µM
CN1CCN(/C(N)=C(\C#N)C(=O)Nc2ccc(Cl)cc2)CC1,TGI,[1],> 100 µM
same,TGI,[2],> 100 µM
same,TGI,[3],> 100 µM
same,TGI,[4],> 100 µM
same,TGI,[5],> 100 µM
same,TGI,[7],> 100 µM
same,TGI,[8],> 100 µM
same,TGI,[9],> 100 µM
same,TGI,[10],> 100 µM
same,TGI,[12],> 100 µM
same,TGI,[13],> 100 µM
same,TGI,[14],> 100 µM
same,TGI,[15],> 100 µM
same,TGI,[16],> 100 µM
same,TGI,[17],35.2 µM
same,TGI,[18],> 100 µM
same,TGI,[19],> 100 µM
same,TGI,[20],> 100 µM
same,TGI,[21],> 100 µM
same,TGI,[22],> 100 µM
same,TGI,[23],> 100 µM
same,TGI,[24],> 100 µM
same,TGI,[25],> 100 µM
same,TGI,[51],> 100 µM
same,TGI,[26],> 100 µM
same,TGI,[27],> 100 µM
same,TGI,[28],58.9 µM
same,TGI,[29],> 100 µM
same,TGI,[52],> 100 µM
same,TGI,[53],> 100 µM
same,TGI,[30],95.3 µM
same,TGI,[31],> 100 µM
same,TGI,[32],> 100 µM
same,TGI,[33],> 100 µM
same,TGI,[34],> 100 µM
same,TGI,[54],> 100 µM
same,TGI,[35],> 100 µM
same,TGI,[36],> 100 µM
same,TGI,[37],> 100 µM
same,TGI,[39],> 100 µM
same,TGI,[41],> 100 µM
same,TGI,[42],> 100 µM
same,TGI,[43],> 100 µM
same,TGI,[44],> 100 µM
same,TGI,[45],> 100 µM
same,TGI,[46],> 100 µM
same,TGI,[48],> 100 µM
same,TGI,[49],> 100 µM
same,TGI,[55],> 100 µM
same,TGI,[50],> 100 µM
